Activity calls are given as the source filed them. The rule behind the calls is not given here.
What was measured:
[1] = Selectivity index, ratio of cytotoxic concentration against mouse Balb/c 3T3 clone A31 cells to EC50 for human PC3 cells; assay type: functional
[2] = Cytotoxicity against mouse Balb/c 3T3 clone A31 cells assessed as cell viability at 100 uM by MTT assay relative to control; assay type: cell-based; settings: read-out: Activity
DU-145 = assay: Cytotoxicity against human DU145 cells by MTT assay; assay type: functional, cell-based
Homo sapiens [3] = species: Homo sapiens; assay: Inhibition of […] pathway in human PC3 cells assessed as phosphorylation of S6 at ser235 residues at 100 uM after 1 hr by alexa fluor 488 probe based flow cytometric analysis (reference value: 48.58%); assay type: cell-based
Homo sapiens [4] = species: Homo sapiens; assay: Inhibition of […] pathway in human PC3 cells assessed as phosphorylation of AKT at ser473 residues at 100 uM after 1 hr by PerCP probe based flow cytometric analysis (reference value: 43.92%); assay type: cell-based
PC-3 = assay: Cytotoxicity against human PC3 cells by MTT assay; assay type: functional, cell-based

Compound | Selectivity Index [1] | viability at 100 µM [2] | Activity (DU-145) | inhibition (Homo sapiens [3]) | inhibition (Homo sapiens [4]) | EC50 (PC-3) | EC50 (DU-145)
Nc1ccc(C(=O)N2CCC(Cc3ccc(F)cc3)CC2)cn1 | >1.33 | 68.1% | inactive | 14% | 39.4% | 75 µM | 
CO[C@H]1C[C@@H]2CC[C@@H](C)[C@@](O)(O2)C(=O)C(=O)N2CCCC[C@H]2C(=O)O[C@H]([C@H](C)C[C@@H]2CC[C@@H](O)[C@H](OC)C2)CC(=O)[C@H](C)/C=C(\C)[C@@H](O)[C@@H](OC)C(=O)[C@H](C)C[C@H](C)/C=C/C=C/C=C/1C [SIROLIMUS] | >2.32 | 58.3% |  | 7.24% | 28.9% | 43.1 µM | 
Cc1ccccc1SC1CCN(C(=O)c2ccc(N)nc2)CC1 | >1.65 | 95.4% | inactive | 15.5% | 34.8% | 60.7 µM | 
COCC[n+]1c2c(n(Cc3cnccn3)c1C)C(=O)c1ccccc1C2=O [SEPANTRONIUM BROMIDE] |  |  |  |  |  | 0.092 µM | 0.0138 µM

Source: ChEMBL document CHEMBL4052808, “Novel anti-prostate cancer scaffold identified by the combination of in silico and cell-based assays targeting the PI3K-AKT-mTOR pathway” (Bioorg Med Chem Lett, 2017)
